One series addresses T1, CYP1A2 (Homo sapiens, UniProt P05177).
T1 construct: from tissue; host or cells: human liver microsomes
T1 sequence (P05177 1-516): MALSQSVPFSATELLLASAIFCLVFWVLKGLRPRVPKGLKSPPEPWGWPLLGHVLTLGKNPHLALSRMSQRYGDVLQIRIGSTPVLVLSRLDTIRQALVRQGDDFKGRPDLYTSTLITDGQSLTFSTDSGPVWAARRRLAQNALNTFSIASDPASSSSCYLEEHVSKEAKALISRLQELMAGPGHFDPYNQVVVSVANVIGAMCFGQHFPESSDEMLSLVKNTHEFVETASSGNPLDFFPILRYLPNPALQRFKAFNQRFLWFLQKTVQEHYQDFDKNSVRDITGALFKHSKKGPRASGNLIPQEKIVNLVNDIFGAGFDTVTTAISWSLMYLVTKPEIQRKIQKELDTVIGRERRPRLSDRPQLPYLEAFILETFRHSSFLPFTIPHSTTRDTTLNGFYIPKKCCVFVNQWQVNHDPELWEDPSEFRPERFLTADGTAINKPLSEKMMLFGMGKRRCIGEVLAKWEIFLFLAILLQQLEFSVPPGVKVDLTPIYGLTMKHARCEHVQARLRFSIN
Put plainly: Cytochrome P450 inhibition, CYP1A2. It is filed as in vitro ADME. Particulars: probe Phenacetin (40 μM); 10 μM compound, human liver microsomes, substrate Phenacetin; read-out: Inhibition percentage CYP1A2 (Phenacetin). As for the experimental part: Example 205 Cytochrome P450 Measurements The cytochrome P450 was measured as the following procedure: 1) A master solution containing phosphate buffer, ultra-pure H2O, MgCl2 solution and human liver microsomes was made according to Table 17, and then 1 μL of 2 mM of compound solution or 1 μL of DMSO (as without inhibitor control) was added to the above master solution. The final concentration of test compounds or control compounds was 10 μM. [table] 2) For CYP1A2 inhibition, 1 μL of specific drug substrate (Phenacetin: 8 mM) was added at the final concentration of 40 μM to the above solution. 8) The mixture was pre-warmed at 37° C. for 5 min. The reaction was started by the addition of 20 μL of 10 mM NADPH solution at the final concentration of 1 mM and carried out at 37° C. 9) The reaction was stopped by addition of 300 μL of cold quench solution (methanol containing internal standards (1S, 500 nM Labetalol, 100 nM Alprazolam and 2 μM Ketoprofen) at the designated time points (Phenacetin: 20 min; Paclitaxel: 10 min; Tolbutamide: 20 min; (s)-Mephenytoin: 20 min; Midazolam: 5 min; Testosterone: 10 min). Samples were vortexed for 5 minutes and centrifuged at 3220 g for 40 minutes at 4° C. And then 100 μL of the supernatant was transferred to a new 96-well plate with 100 μL or 200 μL water (depends on the LC-MS signal response and peak shape) for LC-MS/MS analysis. All experiments were performed in duplicates.
For orientation: Liver microsomes are a subcellular fraction often used to study metabolism.

Series [1] in a line: Plasma protein binding (equilibrium dialysis), human. It is filed as in vitro ADME. The note with it: for recovery at 6 h, 1 μM / fraction unbound at 6 h, 1 μM: pH 7.4, human plasma, 6 hours dialysis; for fraction unbound at 6 h, 1 μM: read-out: Mean % Bound Human (converted). As for the experimental part:
Example 204 Plasma Protein Binding Measurements
The plasma protein binding was measured as the following procedure.
1) Preparation of 100 mM sodium phosphate and 150 mM NaCl buffer (PBS)
A basic solution was prepared by dissolving 14.2 g/L Na2HPO4 and 8.77 g/L NaCl in deionized water and the solution could be stored at 4° C. for up to 7 days. An acidic solution was prepared by dissolving 12.0 g/L NaH2PO4 and 8.77 g/L NaCl in deionized water and the solution could be stored at 4° C. for up to 7 days. The basic solution was titrated with the acidic solution to pH 7.4 and store at 4° C. for up to 7 days. pH was checked on the day of experiment and was adjusted if outside specification of 7.4±0.1.
Frozen plasma was thawed immediately at room temperature.
The plasma was centrifuged at 3,220 g for 10 minutes to remove clots and supernatant was collected into a fresh tube. The pH of the plasma was checked and recorded.
Note: a). Only use plasma that has been thawed no more than twice since arrival. b). Only use plasma within the range of pH 7 to pH 8.
3) Preparation of working solutions
The working solutions of test compounds and control compound ketoconazole were prepared in DMSO at the concentration of 200 μM. And then 3 μL of working solution was removed to mix with 597 μL of human, rat or mouse plasma to achieve a final concentration of 1 μM (0.5% DMSO). Plasma samples were vortexed thoroughly.
4) Preparation of dialysis membranes
The dialysis membranes were soaked in ultrapure water for 60 minutes to separate strips, then in 20% ethanol for 20 minutes, finally in dialysis buffer for 20 minutes.
5) Procedure for equilibrium dialysis
The dialysis apparatus was assembled according to the manufacturer's instruction. Each cell was filled with 120 μL of plasma sample and dialyzed against equal volume of dialysis buffer (PBS). The assay was performed in duplicate. The dialysis plate was sealed and incubated in an incubator at 37° C. with 5% CO2 at 100 rpm for 6 hours. At the end of incubation, seal was removed and 50 μL of samples from both buffer and plasma chambers were transferred to wells of a 96-well plate.
6) Procedure for sample analysis
50 μL of blank plasma was added to each buffer samples and an equal volume of PBS was supplemented to the collected plasma sample. 300 μL of room temperature quench solution (acetonitrile containing internal standards (1S, 100 nM Alprazolam, 500 nM Labetalol and 2 μM Ketoprofen)) was added to precipitate protein. Samples in plate were vortexed for 5 minutes and centrifuged at 3,220 g for 30 minutes at 4° C. And then 100 μL of the supernatant was transferred to a new 96-well plate with 100 μL or 200 μL water (depends on the LC-MS signal response and peak shape) for LC-MS/MS analysis.
Calculate the percentages of test compound and control compound bound as follows:
% Free=(Peak Area Ratiobuffer chamber/Peak Area Ratioplasma chamber)*100
% Recovery=(Peak Area Ratiobuffer chamber+Peak Area Ratioplasma chamber)/Peak Area Ratio total sample*100
Peak Area Ratiobuffer chamber means the conc for free fraction
Peak Area Ratioplasma chamber means the conc for both free and bound fraction
Peak Area Ratiototal sample means the conc for starting sample before incubation
Background: In equilibrium dialysis only unbound substance equilibrates across the membrane.

Structures are written as SMILES.

The source of these data is patent US20210395256A1, “TYROSINE KINASE INHIBITORS, COMPOSITIONS AND METHODS THERE OF” (Betta Pharmaceuticals Co., Ltd., priority 2018, published 2021).

What is called inhibition is the change of the read-out against control, counted positive when it falls. `Cc1nnc(-c2cnn3ccc(N4CCCC4c4cc(F)ccc4F)nc23)[nH]1` (stereo not shown) [Comparative compound A, 5-[2-(2,5-Difluorophenyl)pyrrolidin-1-yl]-3-(5-methyl-1H-1,2,4-triazol-3-yl)pyrazolo[1,5-a]pyrimidine, reference compound]: the inhibition at 20 min, 10 µM at CYP1A2 was 29%. Further, the “degree of plasma protein binding (in words)” value in series [1] (as shown in Table 16) is “high degree of plasma protein binding”. In addition, in series [1], the recovery at 6 h, 1 μM was found to be 93.8% and the fraction unbound at 6 h, 1 μM was 0.0323.
Consider `C[C@H](O)c1nnc(-c2cnn3ccc(N4CCC[C@@H]4c4cc(F)ccc4F)nc23)[nH]1` [Compound 4, (S)-1-(5-(5-((R)-2-(2,5-difluorophenyl)pyrrolidin-1-yl)pyrazolo[1,5-a]pyrimidin-3-yl)-4H-1,2,4-triazol-3-yl)ethan-1-ol], for which, on CYP1A2, the inhibition at 20 min, 10 µM amounted to 1.53%. The fraction unbound at 6 h, 1 μM in series [1] was 0.0691.
On to `CC(C)(O)c1nnc(-c2cnn3ccc(N4CCC[C@@H]4c4cc(F)ccc4F)nc23)[nH]1` [Compound 7, (R)-2-(5-(5-(2-(2,5-difluorophenyl)pyrrolidin-1-yl)pyrazolo[1,5-a]pyrimidin-3-yl)-4H-1,2,4-triazol-3-yl)propan-2-ol], for which, on CYP1A2, the inhibition at 20 min, 10 µM came out at 8.54%. In addition, in series [1], the recovery at 6 h, 1 μM amounted to 96.3% and the fraction unbound at 6 h, 1 μM was 0.0988.
As to `C[C@H](N)c1nnc(-c2cnn3ccc(N4CCC[C@@H]4c4cc(F)ccc4F)nc23)[nH]1` [Compound 11, (S)-1-(5-(5-((R)-2-(2,5-difluorophenyl)pyrrolidin-1-yl)pyrazolo[1,5-a]pyrimidin-3-yl)-4H-1,2,4-triazol-3-yl)ethan-1-amine], in series [1], the recovery at 6 h, 1 μM worked out at 89.3% and the fraction unbound at 6 h, 1 μM is 0.284.
For `OC1(c2nnc(-c3cnn4ccc(N5CCC[C@@H]5c5cc(F)ccc5F)nc34)[nH]2)CCC1` [Compound 23, (R)-1-(5-(5-(2-(2,5-difluorophenyl)pyrrolidin-1-yl)pyrazolo[1,5-a]pyrimidin-3-yl)-4H-1,2,4-triazol-3-yl)cyclobutan-1-ol], the fraction unbound at 6 h, 1 μM in series [1] was 0.0604.
`CC(C)(O)Cc1nnc(-c2cnn3ccc(N4CCC[C@@H]4c4cc(F)ccc4F)nc23)[nH]1` [Compound 30, (R)-1-(5-(5-(2-(2,5-difluorophenyl)pyrrolidin-1-yl)pyrazolo[1,5-a]pyrimidin-3-yl)-4H-1,2,4-triazol-3-yl)-2-methylpropan-2-ol]: in series [1], the recovery at 6 h, 1 μM was determined as 90.7% and the fraction unbound at 6 h, 1 μM was 0.139.
For the compound `OC1CC(c2nnc(-c3cnn4ccc(N5CCC[C@@H]5c5cc(F)ccc5F)nc34)[nH]2)C1` (stereo partly drawn) [Compound 31, (R)-3-(5-(5-(2-(2,5-difluorophenyl)pyrrolidin-1-yl)pyrazolo[1,5-a]pyrimidin-3-yl)-4H-1,2,4-triazol-3-yl)cyclobutan-1-ol], in series [1], the recovery at 6 h, 1 μM was found to be 96.8% and the fraction unbound at 6 h, 1 μM is 0.121.
The corresponding values for `C[C@@H](CO)c1nnc(-c2cnn3ccc(N4CCC[C@@H]4c4cc(F)ccc4F)nc23)[nH]1` [Compound 39, (R)-2-(5-(5-((R)-2-(2,5-difluorophenyl)pyrrolidin-1-yl)pyrazolo[1,5-a]pyrimidin-3-yl)-4H-1,2,4-triazol-3-yl)propan-1-ol] are 97.4% and 0.111.
In the case of `OC(c1nnc(-c2cnn3ccc(N4CCC[C@@H]4c4cc(F)ccc4F)nc23)[nH]1)C(F)(F)F` (stereo partly drawn) [Compound 47, 1-(5-(5-((R)-2-(2,5-difluorophenyl)pyrrolidin-1-yl)pyrazolo[1,5-a]pyrimidin-3-yl)-4H-1,2,4-triazol-3-yl)-2,2,2-trifluoroethan-1-ol], the inhibition at 20 min, 10 µM on CYP1A2 was 4.38%.
